The source of these data is US7273875B2, “Naphthyridine derivatives, their preparation and their use as phosphodiesterase isoenzyme 4 (PDE4) inhibitors” (Novartis AG, priority 2001, dated 2007).

Where a name gives a salt, the structure may show the parent alone.

One data set has as its target T1, human PDE4D (Homo sapiens, UniProt Q08499).
T1 construct: PDE4 cDNA constructs containing the coding regions of the three isoenzymes; made in house; host or cells: Sf21 insect cells (baculovirus, Bac-To-Bac)
The experiment in a line: PDE4 isoenzyme inhibition assay (SPA), PDE4D. It counts as biochemical. The note with it: [3H]-cAMP, 1 μM cAMP, 30-60 minutes at room temperature, 1% DMSO. From the text:
PDE4 Isoenzyme Inhibition Assay
Cloning: GATEWAY flanked PDE4 cDNA constructs containing the coding regions of the three isoenzymes, human PDE4A, human PDE4B, and human PDE4D are generated by PCR and transposed into the GATEWAY shuttle vector pDONOR-201. In addition a 6-histidine tag is introduced by PCR onto the carboxyl terminal end of each of the constructs to facilitate protein purification. Following sequence verification, the PDE4 constructs are transposed into the GATEWAY expression vector pDEST-8, Positive recombinants are selected and transposed into E. coli strain DH10Bac and bacmid produced transfected into SF21 cells using Bac-To-Bac (Invitrogen Life Technologies). Positive transfections are selected and used to generate high titer viral stocks for use in protein expression.
PDE4 Expression: Sf21 cells are grown to a density of 2×10^6 cells/ml and infected with human PDE4A, PDE4B or PDE4D3 containing baculovirus to a multiplicity of infection (m.o.i.) of 1 for 72 hours. The infected cells are harvested by centrifugation at 1,400 g for 4 minutes at 4° C. and the cell pellets are frozen at −80° C. Sf21 (Spodoptera frugiperda 21) insect cells are routinely maintained at densities between […] and 3×10^6 cells/ml in SF00 Serum Free Medium (Invitorgen Life Technologies). Sf21 cells ([…]) are resuspended in 100 ml cold (4° C.) Lysis Buffer (50 mM Na2HPO4, 200 mM NaCl, 10 mM Imidazole). Cells are incubated on ice for 30 minutes then centrifuged at 15,000 g for 20 minutes at 4° C.
PDE4 Purification: The 6 Histidine-tagged PDE4 proteins are isolated from crude cell lysates by a batch-wise Ni-NTA purification strategy (QIAGEN). N-NTA resin is first pre-rinsed to remove ethanol preservative and equilibrated with Lysis Buffer. Cell lysate is added, (10 ml 50% Ni-NTA slurry resin per 50 ml lysate), and gently rotated on a mixer at 4° C. for 1-2 hours. The sample is then centrifuged at 1,000 g for 5 minutes at 4° C. using Denley benchtop centrifuge. The supernatant is removed and the resin is washed 3 times with 50 ml ice cold Wash Buffer (50 mM Na2HPO4, 300 mM NaCl and 20 mM imidazole) followed by centrifugation at 1,000 g for 5 min at 4° C. The 6His-tagged protein is eluted from the resin with 3×5 ml ice cold Elution Buffer (50 mM NaH2PO4, 300 mM NaCl, 250 mM imidazole) and collected by centrifugation at 1,000 g for 5 minutes at 4° C. The supernatants are then pooled before buffer exchange and concentration using a VivaScience 20 ml SK 0.2 μM Concentrator. Samples are aliquoted and stored at −20° C.
PDE4 Assay: The assay is based on Amersham Pharmacia Biotech Scintillation Proximity Assay (SPA) technology. Enzyme is diluted with enzyme dilution buffer (10 mM Tris-HCl, pH7.5 containing 1 mM EDTA) in order to obtain between 10-30% total substrate hydrolysis during the assay. The enzymatic reaction is started by adding 10 μl diluted enzyme to 80 μl substrate (0.1 μCi [3H]-cAMP, 1 μM cAMP) and 10 μl inhibitor solution in a 96-well microtiter plate. After 30-60 minutes incubation at room temperature the reaction is stopped by adding 50 μl PDE SPA beads (20 mg/ml). After 30 minutes the plate is centrifuged (3000 g, 10 minutes) and counted (Packard TopCount).
Inhibitor stock solutions are prepared in 100% dimethylsulphoxide (DMSO) and diluted with DMSO/water to achieve 10 concentrations to cover the range of 0-100% inhibition. The concentration of DMSO is kept constant at 1% (v/v) throughout the assay.
The concentration at which 50% inhibition occurs (IC50) is determined from inhibition—concentration curves in a conventional manner.

T1 sequence (Q08499 1-673 isoform Q08499-2): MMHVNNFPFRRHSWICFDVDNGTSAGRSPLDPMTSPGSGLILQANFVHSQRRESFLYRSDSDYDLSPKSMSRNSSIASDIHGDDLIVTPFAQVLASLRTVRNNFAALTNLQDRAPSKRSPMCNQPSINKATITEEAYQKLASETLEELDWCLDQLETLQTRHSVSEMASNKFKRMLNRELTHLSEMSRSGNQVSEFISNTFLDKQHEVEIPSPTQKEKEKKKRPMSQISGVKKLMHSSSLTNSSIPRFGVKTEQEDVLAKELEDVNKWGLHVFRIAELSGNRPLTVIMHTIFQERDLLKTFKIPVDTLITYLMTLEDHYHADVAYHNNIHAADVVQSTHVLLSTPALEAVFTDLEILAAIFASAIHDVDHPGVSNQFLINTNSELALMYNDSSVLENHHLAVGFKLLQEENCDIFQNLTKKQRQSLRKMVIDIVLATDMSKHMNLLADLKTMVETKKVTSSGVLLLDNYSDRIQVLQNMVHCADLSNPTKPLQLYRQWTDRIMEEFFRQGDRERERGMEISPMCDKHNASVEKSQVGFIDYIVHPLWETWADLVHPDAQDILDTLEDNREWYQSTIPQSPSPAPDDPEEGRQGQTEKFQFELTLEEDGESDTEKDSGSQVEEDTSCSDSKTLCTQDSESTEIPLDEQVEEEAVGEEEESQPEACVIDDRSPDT

On to `CCOC(=O)C1CCC(c2cc3cccnc3c(-c3cccc(C#N)c3)n2)CC1` (stereo not drawn) [Example 1, 4[8-(3-Cyano-phenyl)-[1,7]naphthyridin-6-yl]-cyclohexanecarboxylic acid ethyl ester], for which, on human PDE4D, half-maximal inhibition (IC50) required 38 nM.

For the compound `CSc1cccc(-c2nc(C3CCC(C(=O)O)CC3)cc3cccnc23)c1` (stereo not drawn) [Example 15, 4-[8-(3-Methylsulfanyl-phenyl)-[1,7]naphthyridin-6-yl]-cyclohexanecarboxylic acid], the melting point lay in the range of 177.6 to 178.2 °C. This compound gave a half-maximal inhibitory concentration (IC50) against human PDE4D of 9 nM.

As to `COc1cccc(-c2nc(C3CCC(C(=O)O)CC3)cc3cccnc23)c1` (stereo not drawn) [Example 10, 4-[8-(3-Methoxy-phenyl)-[1,7]naphthyridin-6-yl]-cyclohexanecarboxylic acid], the melting point is 209 to 212 °C. This compound also returned an IC50 against human PDE4D of 25 nM.

Consider `N#Cc1cccc(-c2nc(C3CCC(C(=O)O)CC3)cc3cccnc23)c1` (stereo not drawn) (as salt: potassium) [Example 3, 4-[8-(3-Cyano-phenyl)-[1,7]naphthyridin-6-yl]-cyclohexanecarboxylic acid], for which the melting point is greater than 250 °C.

At human PDE4D, `O=C(O)C1CCC(c2cc3cccnc3c(-c3cccc(OC(F)(F)F)c3)n2)CC1` (stereo not drawn) [Example 14, 4-[8-(3-Trifluoromethoxyphenyl)-[1,7]naphthyridin-6-yl]-cyclohexanecarboxylic acid] returned a half-maximal inhibitory concentration (IC50) of 57 nM.

In turn, `O=C(O)C1CCC(c2cc3cccnc3c(-c3cccc(F)c3)n2)CC1` (stereo not drawn) [Example 12, 4-[8-(3-Fluorophenyl)-[1,7]naphthyridin-6-yl]-cyclohexanecarboxylic acid] showed a concentration for half-maximal inhibition (IC50) on human PDE4D of 21 nM.

At human PDE4D, `N#Cc1cccc(-c2nc(C3CCC(C(=O)O)CC3)cc3cccnc23)c1` (stereo not drawn) [Example 3, 4-[8-(3-Cyano-phenyl)-[1,7]naphthyridin-6-yl]-cyclohexanecarboxylic acid] had a half-maximal inhibitory concentration (IC50) of 9 nM.
